Where “and” joins values, the source holds several entries; their conditions need not be identical. Equal entries are not always repeated. Where two headings read alike, the source gives them in different places.
Tests used:
[1] = test system: RD (rhabdomyosarcoma) cells; test: MTT antiproliferative (cytotoxicity) assay, RD cells; assay type: cell-based, Human; details: Homo sapiens, Rhabdomyosarcoma cell, 72 h, mean (SD), triplicate, n.a. = not active at 100 μM, >100 = less than 60% inhibition at 100 μM
Experimental: (§1) The newly synthesized 1-Ph-DHPIQs, along with the previously reported derivatives 4a, 4c, 6a and 6c, with camptothecin and doxorubicin as positive controls, were tested at the maximum concentration of 100 μM for their antiproliferative activity, using an MTT assay on RD, HCT116, HeLa and A549 cancer cell lines. Compounds showing more than 50% inhibition were tested at lower scalar concentrations, and IC50 values were calculated by interpolation of the dose-response curves (Table 1). […]
(§2) The antiproliferative activity of the newly synthesized compounds, along with some previously reported analogs, and camptothecin and doxorubicin as positive controls was determined by the MTT (3-(4,5-dimethylthiazol-2-yl)-2,5-diphenyltetrazolium bromide) assay. The cells were seeded at a concentration of 1 × 10 ^4 cells/200 μL in a 96-well plate and cultured at 37 °C in a humidified atmosphere with 5% CO2. After 24 h of incubation, scalar concentrations of each test compound (100 to 1.56 μmol·L^−1) were added to the cancer cell culture and the cells were then cultured under the same conditions for 72 hr. Each concentration of the test compound was assayed in triplicate. […] Wells with the 0.1% v/v DMSO were used as controls. After incubation, 20 μL of MTT (5 mg·mL^−1) was added to each well and the plates were incubated for a further 2 h. Next, media were removed from the plates, and 100 μL of DMSO was added to each well to dissolve the formed formazan crystals. Using a flatbed analyzer (Victor^3, PerkinElmer, Waltham, MA, USA), the optical density was determined at 530 nm, minus the measured background absorbance at 620 nm. The concentration value, which causes 50% inhibition of cell population growth (IC50), was determined from the dose-dependent curves using the OriginPro 9.0 software.

[2] = test system: HCT116 (colon cancer) cells; test: MTT antiproliferative (cytotoxicity) assay, HCT116 cells; assay type: cell-based, Human; details: Homo sapiens, HCT-116, 72 h, mean (SD), triplicate, n.a. = not active at 100 μM, >100 = less than 60% inhibition at 100 μM
Experimental: as §1, §2

[3] = test system: HeLa (adenocarcinoma of the cervix uterus) cells; test: MTT antiproliferative (cytotoxicity) assay, HeLa cells; assay type: cell-based, Human; details: Homo sapiens, HeLa, 72 h, mean (SD), triplicate, n.a. = not active at 100 μM, >100 = less than 60% inhibition at 100 μM
Experimental: as §1, §2

[4] = test system: A549 (lung adenocarcinoma) cells; test: MTT antiproliferative (cytotoxicity) assay, A549 cells; assay type: cell-based, Human; details: Homo sapiens, A549, 72 h, mean (SD), triplicate, n.a. = not active at 100 μM, >100 = less than 60% inhibition at 100 μM
Experimental: The antiproliferative activity of the newly synthesized compounds, along with some previously reported analogs, and camptothecin and doxorubicin as positive controls was determined by the MTT (3-(4,5-dimethylthiazol-2-yl)-2,5-diphenyltetrazolium bromide) assay. […] Each concentration of the test compound was assayed in triplicate. […] Wells with the 0.1% v/v DMSO were used as controls. After incubation, 20 μL of MTT (5 mg·mL^−1) was added to each well and the plates were incubated for a further 2 h. Next, media were removed from the plates, and 100 μL of DMSO was added to each well to dissolve the formed formazan crystals. Using a flatbed analyzer (Victor^3, PerkinElmer, Waltham, MA, USA), the optical density was determined at 530 nm, minus the measured background absorbance at 620 nm.

[5] = Kinetic solubility in PBS by RP-HPLC; assay type: physicochemical; details: phosphate buffered saline, 25 °C, kinetic from dmso stock
Experimental: Sample solution at 200 μM in PBS (50 mM, pH 7.4, KCl 0.15 M) from a 10 mM stock solution in DMSO was incubated at room temperature (25 ± 1 °C) for 2 h, following shaking of the suspension on an orbital shaker at 250 rpm, and then separated by […]. Immediately after the filtration step, 100 µL of filtrate was transferred into 100 µL of 1:1 (v/v) mixture of DMSO and PBS (50 mM, pH 7.4, KCl 0.15 M), to avoid precipitation from the saturated solution and analyzed by HPLC. The peak area was plotted against a calibration curve of the tested compound in MeOH [21]. Analytical conditions were as follows. Mobile Phase: MeOH/ammonium formate 20 mM pH 4.7 (70:30, 75:25); MeOH 0.1% TFA/H2O 0.1% TFA (70:30, 60:40); stationary phase: Phenomenex, Kinetex 5 μ, C18, 100 Å (150 × 4.6 mm); flux: 1 mL/min; injection: 10 μL, 265, 290, 320 nm wavelength. HPLC analyses were performed on an Agilent HPLC 1260 Infinity Series Integrated System (Agilent Technologies, Milan, Italy).

[6] = Lipophilicity by RP-HPLC (polycratic capacity factor); assay type: physicochemical; details: capacity factor extrapolated to 100% aqueous mobile phase, aqueous component pH 4.7
Experimental: To quantitate the effect of hydrophobicity on the biological activity of the examined compounds, a relative lipophilicity scale was determined by RP-HPLC [20]. The polycratic capacity factor (log k′w) for each compound in Table 2 was experimentally determined (details in the experimental section) and compared with 1-octanol–water partition coefficient calculated (Clog P) with ACDLabs software (release 10.0; Advanced Chemistry Development, Inc., Toronto, ON, Canada). Log k′w values are quite well correlated with Clog Ps for the whole series (r^2 = 0.791). However, omitting from the regression the two Mannich bases 8b and 8c, which, due to their basicity (pKas about 6.9, estimated by ACDLabs software), should be predominantly in the protonated forms at pH 4.7 (i.e., the pH of the aqueous component of the mobile phase in RP-HPLC), the correlation slightly improves (r^2 = 0.859), providing a linear equation with a slope equal to +0.8 and an intercept of about −0.1.
The lipophilicity parameters were determined by an RP-HPLC technique. Methanol solution of DHPIQ derivatives (1 mg/mL) were analyzed by an Agilent 1260 infinite HPLC system (Agilent Technologies, Milan, Italy) equipped with a diode array detector (DAD), and a Phenomenex, Kinetex 5 μ, C18, 100 Å (150 × 4.6 mm), and eluted with different percentage of mobile phase composition (0.05 increments of MeOH volume fractions in 20 mM ammonium formate buffer at pH 4.7 or water 0.1% v/v TFA, with φ ranging between 0.85 and 0.30). The chromatographic measurements were carried out at 25 ± 1 °C at a flow rate of 1 mL·min^−1 and at 265, 290, 320 nm wavelengths. The log of capacity factors (log k′ = log (tR − t0)/t0) of each compound at different mobile phase compositions was calculated; tR represents the retention time of the solute and t0 is the column dead time, measured as the elution time of a KNO3 solution in MeOH. For each compound, the log k′ values increased linearly with decreasing MeOH volume fraction. The logarithms of the capacity factor extrapolated to 100% aqueous mobile phase (log k′w) were calculated from the linear regressions on at least five data points (r^2 > 0.9984).

P-glycoprotein (P-gp) = P-glycoprotein (P-gp) (Homo sapiens, UniProt P08183); test: Calcein-AM transport inhibition in MDCK-MDR1 cells overexpressing P-gp; details: for IC50: calcein-AM, mean (SD), at least two independent experiments in triplicate; for P-gp/MRP1 selectivity (toward P-gp): ratio of MRP1 and P-gp inhibition potency
Experimental: (§3) The P-gp inhibitory potency of eight DHPIQs was evaluated by measuring the transport inhibition of calcein-AM, a profluorescent P-gp substrate, in the MDCK-MDR1 cell line overexpressing P-gp. Moreover, to evaluate the MRP1 inhibitor activity, the same compounds were screened in MDCK-MRP1 cells overexpressing MRP1.
(§4) According to previously described assays [9], MDCK-MDR1 and MDCK-MRP1 cell lines (50,000 cells per well) were seeded into a black CulturePlate 96-well plate with 100 μL medium and allowed to become confluent overnight. […] Saline buffer (100 μL) was added to each well, and the plate was read by a PerkinElmer Victor3 spectrofluorimeter at excitation and emission wavelengths of 485 nm and 535 nm, respectively. In these experimental conditions, calcein cell accumulation in the absence and in the presence of the test compound was evaluated, and the fluorescence basal level was estimated by untreated cells. In the treated wells, the increase of fluorescence with respect to basal level was measured. IC50 values were determined by interpolating the curve of fluorescence increase percentage versus log [conc.].

[7] = target: multidrug-resistance-associated protein-1 (MRP1) (Homo sapiens, UniProt P33527); test: Calcein-AM transport inhibition in MDCK-MRP1 cells overexpressing MRP1
Experimental: as §3, §4

[8] = target: T1, human serum albumin (HSA) (Homo sapiens, UniProt P02768); test: Binding affinity to immobilized HSA by surface plasmon resonance (SPR)
Experimental: (§5) By plotting the response at equilibrium, the dissociation constant (KD) value was determined for each test compound.
(§6) Fatty acid-free HSA (A3782 from Merck, KGaA Sigma-Aldrich, Darmstadt, Germany) was applied to functionalize the surface of a COOH V sensor chip (Pall FortèBio, Fremont Boulevard, CA, USA), by using amine coupling (EDC/NHS). HSA aqueous stock solution was diluted at the final concentration of 50 μg·mL^−1 in 10 mM sodium acetate buffer (pH 5.0), and immobilization in peripheral flow cells 1 and 3 (unmodified dextran surface in middle flow cell 2 used as a reference) at a final apparent level of about 5000 RU was achieved by applying the following protocol: injection of EDC/NHS (freshly mixed 0.4 M EDC and 0.1 M NHS) 1:1 v/v at a flow of 25 μL·min^−1 for 4 min; injection of HSA solution at a flow of 25 μL·min^−1 for 8 min; capping on unreacted activated carboxyl groups by injection of 1 M ethanolamine solution (pH 9) at a flow of 25 μL·min^−1 for 8 min. The functionalized surface was then treated with repeated injection of 4 M NaCl, as a regenerating reagent, and conditioned overnight prior to use with pH 7.4 PBS (10 mM NaH2PO4 and 150 mM NaCl) as a running buffer. Each cycle (without the need of regeneration) for binding assay to HSA was carried out in PBS/4% v/v DMSO and consisted of a run buffer injection (60 s), injection of analyte single concentration for 120 s (ranging from 1 to 200 μM) at a flow 20 μL·min^−1, and a dissociation phase for 150 s (flow 20 μL·min^−1). Each measurement was performed at least in triplicate and analyzed by using QDAT software, vers 2.2.0.7 (non-linear regression analysis of 1:1 stoichiometric reversible binding model), and double referencing.

[9] = Hydrolytic stability monitored by RP-HPLC; assay type: physicochemical; details: 0.15 M KCl; for Hydrolytic stability at pH 2: 0.01 M HClaq, pH 2, 25 °C; for Hydrolytic stability at pH 7.4: 50 mM PBS, pH 7.4, 25 °C
Excerpt: In particular, the transformation of the DHPIQ-2-aldehyde via Mannich reaction (8b,c) opens the road to future developments of new water-soluble antiproliferative DHPIQ derivatives endowed with the ability to inhibit P-gp and reverse MDR.

[10] = target: T1, human serum albumin (HSA); details: 10 μM, pH 7.4
Experimental: as §5, §6

[11] = aqueous buffer, PBS (50 mM, pH 7.4, 0.15 M KCl) at 25 ± 1 °C, read-out: S (solubility)

Sequence of P-glycoprotein (P-gp) (P08183 whole entry): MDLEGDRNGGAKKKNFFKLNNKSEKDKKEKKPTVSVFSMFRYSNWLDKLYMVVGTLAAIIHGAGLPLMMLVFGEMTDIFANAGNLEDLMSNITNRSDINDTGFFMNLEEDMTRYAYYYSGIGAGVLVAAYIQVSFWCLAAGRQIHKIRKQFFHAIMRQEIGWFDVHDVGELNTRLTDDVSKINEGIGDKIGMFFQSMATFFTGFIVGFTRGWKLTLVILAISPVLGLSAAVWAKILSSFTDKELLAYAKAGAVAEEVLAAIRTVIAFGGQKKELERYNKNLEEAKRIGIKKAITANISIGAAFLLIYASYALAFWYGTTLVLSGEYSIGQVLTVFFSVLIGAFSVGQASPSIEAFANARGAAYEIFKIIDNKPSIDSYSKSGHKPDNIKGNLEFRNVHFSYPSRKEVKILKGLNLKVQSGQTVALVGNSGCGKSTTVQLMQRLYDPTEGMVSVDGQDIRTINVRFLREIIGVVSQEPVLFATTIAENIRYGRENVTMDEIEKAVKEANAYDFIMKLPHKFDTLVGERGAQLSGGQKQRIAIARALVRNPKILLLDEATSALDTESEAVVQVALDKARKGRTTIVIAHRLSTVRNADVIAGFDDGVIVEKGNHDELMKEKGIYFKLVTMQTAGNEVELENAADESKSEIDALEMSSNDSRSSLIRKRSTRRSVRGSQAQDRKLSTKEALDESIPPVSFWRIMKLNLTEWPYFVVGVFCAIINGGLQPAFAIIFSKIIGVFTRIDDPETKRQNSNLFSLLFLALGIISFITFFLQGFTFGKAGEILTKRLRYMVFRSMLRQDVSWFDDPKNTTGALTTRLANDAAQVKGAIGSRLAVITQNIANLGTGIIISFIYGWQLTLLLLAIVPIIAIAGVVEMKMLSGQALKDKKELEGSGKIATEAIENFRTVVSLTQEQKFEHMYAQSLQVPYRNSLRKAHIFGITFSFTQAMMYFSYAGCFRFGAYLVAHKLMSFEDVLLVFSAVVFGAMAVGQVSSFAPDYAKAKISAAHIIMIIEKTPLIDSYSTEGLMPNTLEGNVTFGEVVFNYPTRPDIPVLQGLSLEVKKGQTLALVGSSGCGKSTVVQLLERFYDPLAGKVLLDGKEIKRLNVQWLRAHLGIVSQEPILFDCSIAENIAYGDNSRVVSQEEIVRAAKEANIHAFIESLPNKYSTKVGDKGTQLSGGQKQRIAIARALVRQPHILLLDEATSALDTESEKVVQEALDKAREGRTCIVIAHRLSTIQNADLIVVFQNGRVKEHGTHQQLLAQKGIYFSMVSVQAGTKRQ
T1 sequence (P02768 25-609): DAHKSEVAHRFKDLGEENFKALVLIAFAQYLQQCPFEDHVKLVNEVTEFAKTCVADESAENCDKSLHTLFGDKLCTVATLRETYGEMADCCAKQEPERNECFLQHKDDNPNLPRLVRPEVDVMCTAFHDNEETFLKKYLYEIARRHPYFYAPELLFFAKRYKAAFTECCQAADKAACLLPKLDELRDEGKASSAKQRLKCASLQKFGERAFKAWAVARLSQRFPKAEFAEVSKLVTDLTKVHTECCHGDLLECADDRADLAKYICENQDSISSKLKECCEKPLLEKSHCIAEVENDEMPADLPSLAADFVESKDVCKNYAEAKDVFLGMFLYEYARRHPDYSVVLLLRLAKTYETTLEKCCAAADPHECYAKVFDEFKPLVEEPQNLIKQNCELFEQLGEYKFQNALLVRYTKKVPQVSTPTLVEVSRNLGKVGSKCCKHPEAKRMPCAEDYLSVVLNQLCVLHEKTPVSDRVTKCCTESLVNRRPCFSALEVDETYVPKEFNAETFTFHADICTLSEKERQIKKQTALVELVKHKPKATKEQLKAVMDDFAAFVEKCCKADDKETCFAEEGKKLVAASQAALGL
Sequence of multidrug-resistance-associated protein-1 (MRP1) (P33527 whole entry): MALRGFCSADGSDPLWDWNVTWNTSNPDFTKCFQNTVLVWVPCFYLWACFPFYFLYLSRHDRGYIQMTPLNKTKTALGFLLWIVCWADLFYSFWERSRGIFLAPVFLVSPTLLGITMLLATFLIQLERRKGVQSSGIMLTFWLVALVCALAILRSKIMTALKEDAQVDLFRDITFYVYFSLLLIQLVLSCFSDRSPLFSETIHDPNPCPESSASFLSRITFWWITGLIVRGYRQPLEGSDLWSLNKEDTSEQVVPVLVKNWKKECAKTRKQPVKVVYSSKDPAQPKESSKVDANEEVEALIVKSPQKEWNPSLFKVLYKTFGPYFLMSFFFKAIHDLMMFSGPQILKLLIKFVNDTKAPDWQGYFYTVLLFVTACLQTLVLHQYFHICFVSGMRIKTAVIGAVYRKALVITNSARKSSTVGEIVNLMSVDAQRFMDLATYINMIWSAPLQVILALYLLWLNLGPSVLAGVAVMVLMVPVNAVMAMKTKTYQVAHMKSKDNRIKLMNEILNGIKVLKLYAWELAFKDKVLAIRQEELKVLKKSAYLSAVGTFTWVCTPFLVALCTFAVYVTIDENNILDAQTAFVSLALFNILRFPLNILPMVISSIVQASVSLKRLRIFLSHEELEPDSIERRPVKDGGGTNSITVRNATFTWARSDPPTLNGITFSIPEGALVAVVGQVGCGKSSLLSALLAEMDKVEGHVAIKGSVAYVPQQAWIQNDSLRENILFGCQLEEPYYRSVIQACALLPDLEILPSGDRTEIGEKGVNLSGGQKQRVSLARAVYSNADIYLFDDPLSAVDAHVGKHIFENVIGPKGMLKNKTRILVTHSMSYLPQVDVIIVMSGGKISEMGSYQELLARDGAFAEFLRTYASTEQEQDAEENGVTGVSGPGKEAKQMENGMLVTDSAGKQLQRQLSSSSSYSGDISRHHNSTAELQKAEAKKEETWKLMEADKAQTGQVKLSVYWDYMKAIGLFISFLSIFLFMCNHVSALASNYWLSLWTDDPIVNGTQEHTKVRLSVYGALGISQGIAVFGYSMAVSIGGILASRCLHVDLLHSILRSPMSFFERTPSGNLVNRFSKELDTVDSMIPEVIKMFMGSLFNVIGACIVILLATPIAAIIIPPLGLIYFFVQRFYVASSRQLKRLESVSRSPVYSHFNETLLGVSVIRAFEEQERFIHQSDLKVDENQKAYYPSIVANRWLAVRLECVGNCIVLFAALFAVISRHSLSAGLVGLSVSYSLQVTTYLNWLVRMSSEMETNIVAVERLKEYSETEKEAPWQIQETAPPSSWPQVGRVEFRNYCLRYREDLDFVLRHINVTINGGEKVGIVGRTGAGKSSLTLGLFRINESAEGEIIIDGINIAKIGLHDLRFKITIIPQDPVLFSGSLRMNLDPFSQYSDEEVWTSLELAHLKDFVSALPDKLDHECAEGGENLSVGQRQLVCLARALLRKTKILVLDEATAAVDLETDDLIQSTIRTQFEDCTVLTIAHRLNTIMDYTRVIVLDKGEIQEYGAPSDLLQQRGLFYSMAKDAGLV

Row | solubility at 2 h [5, 11] [µM] | Log k′w [6] | IC50 (P-glycoprotein (P-gp); P-gp, IC50, MDCK-MDR1 cells) | IC50 [7] [µM] | Kd [8] [µM] | melting point [°C] | P-gp/MRP1 selectivity (toward P-gp) (P-glycoprotein (P-gp)) | Hydrolytic stability at pH 2 [9] | Hydrolytic stability at pH 7.4 [9] | solubility at 2 h ([5]; pH 7.4, aqueous buffer, ‘practically insoluble’ threshold of US and European Pharmacopoeia, read-out: Solubility category in buffered water solution at neutral pH) [µg/mL] | Predicted fraction bound to HSA [10] | IC50 (P-glycoprotein (P-gp); read-out: P-gp, IC50, MDCK-MDR1 cells) [µM] | SMILES | IC50 [1] [µM] | IC50 [2] [µM] | IC50 [3] [µM] | IC50 [4] [µM]
1 | – | – | – | – | – | – | – | – | – | – | – | – | CC[C@@]1(O)C(=O)OCc2c1cc1n(c2=O)Cc2cc3ccccc3nc2-1 [Camptothecin, reference compound] | 16 | 12.3 | 0.33 | 3.32
2 | 19.8 | 3.39 | 4.48 µM | 6.42 | 1.95 | – | – | – | – | – | – | – | COc1ccc(-c2c(C=O)cn3c2-c2cc(OC)c(OC)cc2CC3)cc1 [Compound 4b] | 95.2 | > 100 | > 100 | > 100
3 | – | – | – | – | – | 210 to 215 | – | – | – | – | – | – | COc1cc2c(cc1OC)-c1c(-c3ccc(Cl)cc3)c(C(=O)O)cn1CC2 [Compound 5a, 1-(4-Chlorophenyl)-8,9-dimethoxy-5,6-dihydropyrrolo[2,1-a]isoquinoline-2-carboxylic acid] | > 100 | > 100 | > 100 | > 100
4 | 14.6 | – | < 0.5 µM and 0.35 µM | > 100 | 5.2 | – | more than two orders of magnitude | – | – | – | – | – | CCOc1ccc(-c2c(C(=O)O)cn3c2-c2cc(OCC)c(OCC)cc2CC3)cc1OCC [Compound 5c, 1-(3,4-Diethoxyphenyl)-8,9-diethoxy-5,6-dihydropyrrolo[2,1-a]isoquinoline-2-carboxylic acid] | – | – | – | –
5 | 1.42 | 4.42 | 5.89 µM | 16.6 | 4.6 | – | – | – | – | – | – | – | COc1cc2c(cc1OC)-c1c(-c3ccc(Cl)cc3)c(C#N)cn1CC2 [Compound 6a] | > 100 | > 100 | > 100 | > 100
6 | 1.06 | 5.09 | < 0.5 µM and 0.39 µM | > 100 | 1.8 | – | more than two orders of magnitude | – | – | – | – | – | CCOc1ccc(-c2c(C#N)cn3c2-c2cc(OCC)c(OCC)cc2CC3)cc1OCC [Compound 6c] | > 100 | > 100 | > 100 | > 100
7 | – | – | – | – | – | – | – | – | – | – | – | – | CCOc1ccc(-c2c(C#N)c(C)n3c2-c2cc(OCC)c(OCC)cc2CC3)cc1OCC [Compound 6d, 1-(3,4-Diethoxyphenyl)-8,9-diethoxy-3-methyl-5,6-dihydropyrrolo[2,1-a]isoquinoline-2-carbonitrile] | > 100 | > 100 | > 100 | > 100
8 | – | – | – | – | – | 271 to 273 | – | – | – | – | – | – | CCOc1ccc(-c2c(C#N)c(-c3ccccc3)n3c2-c2cc(OCC)c(OCC)cc2CC3)cc1OCC [Compound 6e, 1-(3,4-Diethoxyphenyl)-8,9-diethoxy-3-phenyl-5,6-dihydropyrrolo [2,1-a]isoquinoline-2-carbonitrile] | > 100 | – | – | –
9 | 41.7 | 5.49 | < 0.5 µM and 0.32 µM | 3.23 | 12.1 | – | – | stable over 4 h | stable over 4 h | – | – | – | CCOC(=O)c1cn2c(c1-c1ccc(OCC)c(OCC)c1)-c1cc(OCC)c(OCC)cc1CC2 [Compound 7c, Ethyl 1-(3,4-Diethoxyphenyl)-8,9-diethoxy-5,6-dihydro pyrrolo[2,1-a]isoquinoline-2-carboxylate] | – | – | – | –
10 | 112 | 3.86 | < 0.5 µM and 0.36 µM | 1.8 | 19.3 | – | – | stable over 4 h | stable over 4 h | < 100 | less than 40% | – | COc1ccc(-c2c(CN3CCOCC3)cn3c2-c2cc(OC)c(OC)cc2CC3)cc1 [Compound 8b, 8,9-Dimethoxy-1-(4-methoxyphenyl)-2-(morpholin-4-ylmethyl)-5,6-dihydropyrrolo[2,1-a]isoquinoline] | 37.7 | 56.4 | 65.4 | 66
11 | – | – | – | – | – | – | – | – | – | – | – | – | COc1cccc2c1C(=O)c1c(O)c3c(c(O)c1C2=O)C[C@@](O)(C(=O)CO)C[C@@H]3O[C@H]1C[C@H](N)[C@H](O)[C@H](C)O1 [Doxorubicin, reference compound] | 0.29 | 0.14 | 0.89 | 0.38
12 | – | – | – | – | – | – | – | – | – | – | – | 1.2 | COc1cc2c(cc1OC)CN(CCC=C1CCCc3c(OC)cccc31)CC2 [MC18, reference compound] | – | – | – | –

— publication PMC11054433, “Nature-Inspired 1-Phenylpyrrolo[2,1-a]isoquinoline Scaffold for Novel Antiproliferative Agents Circumventing P-Glycoprotein-Dependent Multidrug Resistance” (Pharmaceuticals, 2024)
